Assay results from US12559470B2, “FGFR inhibitors and uses thereof” (University of Southern California, priority 2018, dated 2026).

Target: FGFR2 (Homo sapiens, UniProt P21802)
Assay: In vitro inhibitory assay (IC50) against FGFR2
Type: biochemical
Experimental: The efficacy of the compounds to inhibit the kinase activity of FGFRs was measured by the determination of the IC50 value.
The results are listed in Table 4 expressed as IC50 values (the concentration of compound at which 50% of the enzyme activity is inhibited).

Sequence of FGFR2 (P21802 22-821): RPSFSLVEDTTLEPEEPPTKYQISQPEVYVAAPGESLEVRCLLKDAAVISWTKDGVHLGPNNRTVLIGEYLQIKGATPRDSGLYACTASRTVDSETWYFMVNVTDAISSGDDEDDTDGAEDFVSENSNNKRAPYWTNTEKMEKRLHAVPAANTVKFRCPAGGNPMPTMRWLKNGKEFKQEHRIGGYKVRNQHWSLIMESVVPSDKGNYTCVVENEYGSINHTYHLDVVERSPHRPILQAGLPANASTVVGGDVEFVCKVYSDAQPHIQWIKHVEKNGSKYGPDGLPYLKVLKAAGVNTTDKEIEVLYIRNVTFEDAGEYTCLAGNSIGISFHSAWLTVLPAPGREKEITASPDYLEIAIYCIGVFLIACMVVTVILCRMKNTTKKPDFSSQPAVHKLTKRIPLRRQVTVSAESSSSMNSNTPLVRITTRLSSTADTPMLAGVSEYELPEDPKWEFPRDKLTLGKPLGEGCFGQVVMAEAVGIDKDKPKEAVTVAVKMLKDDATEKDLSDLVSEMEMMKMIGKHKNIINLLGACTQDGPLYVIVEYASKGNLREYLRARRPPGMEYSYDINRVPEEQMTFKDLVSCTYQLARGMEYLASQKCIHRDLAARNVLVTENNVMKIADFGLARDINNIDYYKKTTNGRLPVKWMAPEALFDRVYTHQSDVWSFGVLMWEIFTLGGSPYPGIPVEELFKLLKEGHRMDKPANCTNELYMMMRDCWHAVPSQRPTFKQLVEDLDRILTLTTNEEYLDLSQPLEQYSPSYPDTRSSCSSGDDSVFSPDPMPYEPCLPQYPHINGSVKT

IC50: 6 nM
Compound: CCN1CCN(c2ccc(Nc3cc(-c4cccnc4Nc4c(Cl)c(OC)cc(OC)c4Cl)ncn3)cc2)CC1 [Compound 1, 6-(2-((2,6-dichloro-3,5-dimethoxyphenyl)amino)pyridin-3-yl)-N-(4-(4-ethylpiperazin-1-yl)phenyl)pyrimidin-4-amine]
